Key:
[1] = system: lineage negative (Lin−) bone marrow cells (HSPC); assay: EdU incorporation by flow cytometry in MCF7 tumor-bearing mice, bone marrow; assay type: in vivo; settings: single dose IP 100 mg/kg
Experimental: (§1) FIG. 2A is a graph depicting the percentage of EdU positive MCF7 tumor cells vs. Edu positive Lin^− bone marrow cells from MCF7 tumor bearing mice treated with Compound 1 at 4, 12, 24, and 48 hours post treatment. MCF7 tumor cells are on the left at each time point while Lin- bone marrow cells are on the right at each time point. FIG. 2B is a graph depicting the percentage of EdU positive MCF7 tumor cells vs. Edu positive Lin^− bone marrow cells from MCF7 tumor bearing mice treated with Compound 1 at 4, 12, 24, and 48 hours post treatment normalized to baseline. MCF7 tumor cells are on the left at each time point while Lin- bone marrow cells are on the right at each time point.
(§2) MCF7 tumor-bearing mice were treated with a single dose of Compound 1 (IP, 100 mg/kg) or vehicle control. After 4, 12, 24, and 48 hours of treatment, animals were pulsed with 5-ethynyl-2′-deoxyuridine (EdU; IP, 200 […]g). Tumors and femurs from each animal were harvested after 4 hours of EdU dosing and processed to single cell suspensions for detection of EdU+ cells by flow cytometry. HSPC in bone marrow is defined as cell populations negative for lineage markers (Mac-1, Gr-1, Ter119, B220, CD4, CD8). […] Students T tests were completed to compare % EdU+ cells (tumor vs bone marrow) at baseline in panel A ****p≤0.0001.

[2] = system: MCF7 tumor cells; assay: EdU incorporation by flow cytometry in MCF7 tumor-bearing mice, tumor cells; assay type: in vivo; settings: single dose IP 100 mg/kg
Experimental: as §1, §2

[3] = system: MDA-MB-231 breast cancer xenograft; assay: MDA-MB-231 xenograft, weekly Compound 1 30 minutes prior to eribulin, tumor volume; assay type: in vivo, mice
Experimental: The graphs represent mean tumor volume over time. The y-axis is tumor volume measured in cubic millimeters. The x-axis is time measured in days. The dotted line represents dates of weekly treatment. The error bars represent standard error of the mean.
A highly CDK4/6 dependent breast cancer xenograft model (MDA-MB-231) was employed to determine whether transient CDK4/6 inhibition with Compound 1 would antagonize the intended therapeutic effects. First, MD-MB-231 tumor-bearing mice were treated daily with Compound 1 (IP, 100 mg/kg, n=6-8) for 28 days to confirm the CDK4/6 dependency of the xenograft model. Next, MDA-MB-231 tumor-bearing mice were treated with eribulin (IV, 0.5 mg/kg) with or without Compound 1 (IP, 100 mg/kg) weekly for three weeks, with Compound 1 being given 30 minutes prior to chemotherapy treatment. In all experiments, tumors were measured, and tumor volume was calculated twice weekly. […] Therefore, Compound 1 can be administered to preserve hematopoietic stem and progenitor cell (HSPC) and immune system function during eribulin therapy without antagonizing the intended anti-tumor efficacy of eribulin.

[4] = system: MDA-MB-231 breast cancer xenograft; assay: MDA-MB-231 xenograft, daily Compound 1 with weekly eribulin, tumor volume; assay type: in vivo, mice
Experimental: The y-axis is tumor volume measured in cubic millimeters. The x-axis is time measured in days. The dotted line represents dates of weekly treatment. The error bars represent standard error of the mean.
A highly CDK4/6 dependent breast cancer xenograft model (MDA-MB-231) was employed to determine whether continuous CDK4/6 inhibition with Compound 1 would antagonize the intended therapeutic effects of eribulin. First, MDA-MB-231 tumor-bearing mice were treated daily with Compound 1 (IP, 100 mg/kg, n=10) for 28 days to confirm the CDK4/6 dependency of the xenograft model. Next, MDA-MB-231 tumor-bearing mice were treated with eribulin (IV, 0.5 mg/kg, n=10) weekly for three weeks. Next, MDA-MB-231 tumor-bearing mice were treated daily with Compound 1 (IP, 100 mg/kg, n=10) and with eribulin (IV, 0.5 mg/kg, n=10) weekly for three weeks, with Compound 1 being given 30 minutes prior to chemotherapy treatment on days 1, 8, and 15. In all experiments, tumors were measured, and tumor volume was calculated twice weekly. The dosing schedule is shown below in Table 1. […] Therefore, Compound 1 can be administered to preserve hematopoietic stem and progenitor cell (HSPC) and immune system function during eribulin therapy without antagonizing the intended anti-tumor efficacy of eribulin.

[5] = patients receiving eribulin; cited from earlier work
[6] = Lin− bone marrow cells, post treatment
[7] = MCF7 tumor cells, post treatment

| Structure (SMILES) | G1-arrest of hematopoietic stem cells [1] | time of maximal cell cycle inhibition (% EdU+ normalized to baseline) [1, 6] | time of reentering the cell cycle [1, 6] | time of maximal cell cycle inhibition (% EdU+ normalized to baseline) [2, 7] | time of reentering the cell cycle [2, 7] | cell cycle status of tumor cells after Compound 1 ([2]; S/G2/M) | effect of Compound 1 on eribulin therapy (tumor volume) ([3]; Compound 1 IP 100 mg/kg 30 minutes prior to eribulin IV 0.5 mg/kg, weekly for three weeks, compared to eribulin alone) | anti-tumor effect of Compound 1 alone ([3]; IP 100 mg/kg, dosed on a similar schedule as in combination with eribulin (weekly for three weeks)) | effect of continuous Compound 1 on eribulin therapy (tumor volume) ([4]; Compound 1 IP 100 mg/kg daily for 28 days plus eribulin IV 0.5 mg/kg weekly for three weeks, compared to eribulin alone) | anti-tumor effect of Compound 1 alone ([4]; IP 100 mg/kg daily for 28 days) | incidence of >grade 3 neutropenia [5] |
| --- | --- | --- | --- | --- | --- | --- | --- | --- | --- | --- | --- |
| CN1CCN(c2ccc(Nc3ncc4cc5n(c4n3)C3(CCCCC3)CNC5=O)nc2)CC1 [Compound 1, 2′-((5-(4-methylpiperazin-1-yl)pyridin-2-yl)amino)-7′,8′-dihydro-6′H-spiro(cyclohexane-1,9′-pyrazino(1′,2′: 1,5)pyrrolo(2,3-d)pyrimidin)-6′-one] | nearly universal G1-arrest | 24 h | ≤ 48 h | 24 h | ≤ 48 h | a significant fraction of tumor cells are past the G1 checkpoint | no antagonist effect | did not demonstrate any significant anti-tumor effect | synergistic effect | did demonstrate a significant anti-tumor effect |  |
| C=C1C[C@@H]2CC[C@@]34C[C@H]5O[C@H]6[C@@H](O3)[C@H]3O[C@H](CC[C@@H]3O[C@H]6[C@H]5O4)CC(=O)C[C@@H]3[C@@H](OC)[C@@H](C[C@H](O)CN)O[C@H]3C[C@H]3O[C@@H](CC[C@@H]1O2)C[C@@H](C)C3=C [eribulin] |  |  |  |  |  |  |  |  |  |  | around 57% |

Reference: patent US20210267986A1, “THERAPEUTIC REGIMENS FOR TREATMENT OF CANCER USING ERIBULIN AND SELECTIVE CDK4/6 INHIBITOR COMBINATIONS” (G1 Therapeutics, Inc., priority 2018, published 2021)
